Where a name gives a salt, the structure may show the parent alone.
What was measured:
Format in all cases: cell-based
A. baumannii R674 [1] = assay: Individual antibacterial activity (MIC) of adjuvants; conditions: Acinetobacter baumannii, R674, read-out: MIC against clinical isolates of bacteria
Method in brief: (§1)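 Broth microdilution used 6-h peptone cultures diluted to about 10^5 cfu/mL, with two-fold serial dilutions of adjuvant alone. Plates were incubated at 37 °C with shaking at 150 rpm. MIC was taken as the lowest concentration giving OD600 equal to the media control at 24 h.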

E. coli R3336 = assay: as above; conditions: Escherichia coli, R3336, read-out: MIC against clinical isolates of bacteria
Method in brief: as §1

K. pneumoniae R3934 = assay: as above; conditions: Klebsiella pneumoniae, R3934, read-out: MIC against clinical isolates of bacteria
Method in brief: as §1

P. aeruginosa R590 [2] = assay: as above; conditions: Pseudomonas aeruginosa, R590, read-out: MIC against clinical isolates of bacteria
Method in brief: as §1

human RBCs = assay: Haemolytic activity; conditions: concentration at which 50% of human blood cells are lysed; 1 h at 37° C.
Method in brief: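 Human erythrocytes (5 vol % in PBS, pH 7.4) were incubated with serially diluted compound for 1 h at 37 °C, and A540 of the supernatant was read after centrifugation. Hemolysis was scaled between untreated (0%) and Triton X-100 (100%) wells. HC50 is the concentration lysing 50% of cells.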

A. baumannii R674 [3] = assay: Bactericidal time-kill kinetics; conditions: combination of rifampicin and Compound 13 (4 μg/mL+2 μg/mL and 8 μg/mL+2 μg/mL)
Description: (§2) Briefly, A. baumannii R674 and P. aeruginosa R590 were grown in nutrient broth at 37° C. for 6 h. Combinations of Compound 13 and rifampicin (4 μg/mL+2 μg/mL and 8 μg/mL+2 μg/mL) and rifampicin alone (32 μg/mL) were inoculated with aliquots of A. baumannii R674 suspended in fresh media at ˜1.8×10^5 CFU/mL. Similarly, combination of […] and fusidic acid (8 μg/mL+1 μg/mL), Compound 15 (128 μg/mL) and fusidic acid (16 μg/mL) were inoculated with aliquots of P. aeruginosa R590 suspended in fresh media at ˜1.8×10^5 CFU/mL. After specified time intervals (0, 1, 2, 4, 6 and 12 h), 20 μL aliquots were serially diluted 10-fold in 0.9% saline, plated on sterile MacConkey agar plates and incubated at 37° C. overnight. The viable colonies were counted the next day and represented as logio (CFU/mL) (FIG. 1). Combination of rifampicin and Compound 13 could completely kill the bacteria in 2 h and combination of fusidic acid and Compound 14 could kill bacteria in 12 h.

P. aeruginosa R590 [4] = assay: Bactericidal time-kill kinetics; conditions: combination with fusidic acid (8 μg/mL+1 μg/mL)
Description: as §2

Compound | MIC (A. baumannii R674 [1]) [µg/mL] | MIC (E. coli R3336) [µg/mL] | MIC (K. pneumoniae R3934) [µg/mL] | MIC (P. aeruginosa R590 [2]) [µg/mL] | HC50 (human RBCs) [µg/mL] | Time to completely kill the bacteria (A. baumannii R674 [3]) [h] | Time to kill bacteria (P. aeruginosa R590 [4]) [h]
NCCCC[C@H](N)C(=O)NCCCCCCN(CCCCCCNC(=O)[C@@H](N)CCCCN)C(=O)Cc1cccc2ccccc12 [Compound 13, N,N-bis-[(6-(^LLys)amido)hexyl] naphthyl ethanamide tetrakistrifluoroacetate] | 512 | > 512 | > 512 | 512 | >1024 | 2 | –
NCCCC[C@H](N)C(=O)NCCCCCCN(CCCCCCNC(=O)[C@@H](N)CCCCN)C(=O)CC(c1ccccc1)c1ccccc1 [Compound 14, N,N-bis-[(6-(^LLys)amido)hexyl] 3,3-diphenyl propanamide tetrakis trifluoroacetate] | > 512 | > 512 | > 512 | > 512 | >1024 | – | 12

Source: patent US20220323383A1, “SMALL-MOLECULAR ADJUVANTS AND IMPLEMENTATIONS THEREOF” (JAWAHARLAL NEHRU CENTRE FOR ADVANCED SCIENTIFIC RESEARCH, priority 2019, published 2022)
